These results are taken from PubChem BioAssay (NCI).

Some test systems named below: DU-145 prostate; MDA-MB-435; NCI-H460 lung; NCI-H522 lung; NCI/ADR-RES ovarian; OVCAR-3 ovarian; OVCAR-8 ovarian; SK-MEL-2 melanoma; SR leukemia; UO-31 renal.
What all share (assay): NCI anticancer screen, dose series, 48 h

Structures are written as SMILES.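 Where inhibition never reached the appropriate level, the endpoint shown equals the highest concentration tested. Otherwise, values were interpolated linearly from a five-concentration, 48-hour dose response in 96-well plates. The concentration for 50% growth inhibition is given as GI50. TGI: concentration producing complete growth inhibition.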

With `Cc1ccc(NC(=O)c2ccc(CN3CCN(C)CC3)cc2)cc1Nc1nccc(-c2cccnc2)n1`, the GI50 in the experiment on DU-145 prostate was 19.7 µM; in the experiment with MDA-MB-435, 17.4 µM; with NCI-H460 lung it was 16.8 µM; in the experiment on NCI-H522 lung it was 16.1 µM; with NCI/ADR-RES ovarian, 23.8 µM; with OVCAR-3 ovarian, 31.1 µM. The GI50 in the experiment with OVCAR-8 ovarian was 27 µM; with SK-MEL-2 melanoma it was 22.1 µM; in the experiment with SR leukemia, 4.72 µM; in the experiment on UO-31 renal, 22.3 µM. For the same compound, the TGI came to 55.6 µM in the experiment on DU-145 prostate; 36 µM with MDA-MB-435; 37.1 µM in the experiment with NCI-H460 lung; 32.7 µM with NCI-H522 lung; 68.3 µM in the experiment on NCI/ADR-RES ovarian; 72.9 µM in the experiment on OVCAR-3 ovarian. For the same compound, the TGI was greater than 89.9 µM in the experiment on OVCAR-8 ovarian, 54.8 µM in the experiment with SK-MEL-2 melanoma, greater than 51.3 µM in the experiment on SR leukemia and 53.8 µM with UO-31 renal.
Consider `CC1(C)N=C(N)N=C(N)N1c1ccc(CCCCc2ccccc2)c(Cl)c1`, for which the GI50 is 0.0577 µM in the experiment with DU-145 prostate; 0.038 µM in the experiment with MDA-MB-435; less than 0.0129 µM in the experiment on NCI-H460 lung; 0.05 µM with NCI-H522 lung; 6.74 µM in the experiment on NCI/ADR-RES ovarian; 0.0541 µM in the experiment on OVCAR-3 ovarian. Also, the GI50 in the experiment on OVCAR-8 ovarian was 0.0606 µM; in the experiment with SK-MEL-2 melanoma it was 0.0394 µM; in the experiment with SR leukemia, 0.0259 µM; in the experiment on UO-31 renal, 4.89 µM. Besides, the TGI with DU-145 prostate was 14 µM; in the experiment on MDA-MB-435, 5.91 µM; in the experiment on NCI-H460 lung it was 4.04 µM; with NCI-H522 lung, 1.83 µM; with NCI/ADR-RES ovarian, greater than 100 µM; with OVCAR-3 ovarian, 1.76 µM. Moreover, the TGI is greater than 39.7 µM in the experiment on OVCAR-8 ovarian, 12.4 µM in the experiment on SK-MEL-2 melanoma, 5.81 µM in the experiment with SR leukemia and 25.6 µM in the experiment on UO-31 renal.
Take `C[n+]1c(/C=C/c2c[nH]c3ccccc23)ccc2ccccc21`: the GI50 was 10.1 µM in the experiment with DU-145 prostate; 7.95 µM with MDA-MB-435; 3.14 µM in the experiment with NCI-H460 lung; 11.8 µM in the experiment with NCI-H522 lung; greater than 100 µM in the experiment with NCI/ADR-RES ovarian; 7.07 µM in the experiment with OVCAR-3 ovarian. For the same compound, the GI50 with OVCAR-8 ovarian was 4.24 µM; in the experiment with SK-MEL-2 melanoma, 16.1 µM; in the experiment with SR leukemia, 5.84 µM; in the experiment with UO-31 renal, 11.3 µM. The TGI with DU-145 prostate is 22.7 µM; with MDA-MB-435, 20.6 µM; with NCI-H460 lung, 12.9 µM; in the experiment on NCI-H522 lung it was 25.9 µM; with NCI/ADR-RES ovarian, greater than 100 µM; in the experiment with OVCAR-3 ovarian it was 26.7 µM. The TGI was found to be 28.9 µM with OVCAR-8 ovarian, 30.6 µM with SK-MEL-2 melanoma, 30 µM in the experiment with SR leukemia and 30.4 µM with UO-31 renal.
For the compound `O=C(c1ccco1)c1nc2cc(C(F)(F)F)ccc2nc1C(F)(F)F`, the GI50 in the experiment on DU-145 prostate, with MDA-MB-435, in the experiment with NCI-H460 lung, with NCI-H522 lung, with NCI/ADR-RES ovarian and in the experiment on OVCAR-3 ovarian was greater than 100 µM each time. Moreover, the GI50 in the experiment on OVCAR-8 ovarian was greater than 100 µM; in the experiment on SK-MEL-2 melanoma, greater than 100 µM; with SR leukemia, 40.5 µM; with UO-31 renal, greater than 100 µM. Moreover, the TGI with DU-145 prostate, in the experiment with MDA-MB-435, in the experiment with NCI-H460 lung, with NCI-H522 lung, in the experiment on NCI/ADR-RES ovarian and in the experiment with OVCAR-3 ovarian was greater than 100 µM throughout. Also, the TGI in the experiment with OVCAR-8 ovarian, with SK-MEL-2 melanoma, in the experiment with SR leukemia and with UO-31 renal was greater than 100 µM in each case.
`CC(C)N1CC2CN(Cc3ccccc3)CC(C1)C2=O`: the TGI in the experiment on DU-145 prostate, in the experiment with MDA-MB-435, in the experiment on NCI-H460 lung, in the experiment on NCI-H522 lung, in the experiment with NCI/ADR-RES ovarian and in the experiment with OVCAR-3 ovarian was greater than 100 µM each time. The TGI in the experiment on OVCAR-8 ovarian, in the experiment on SK-MEL-2 melanoma, in the experiment on SR leukemia and with UO-31 renal was greater than 100 µM throughout.
Regarding `Nc1c(C(=O)c2ccc(-c3cccnc3)cc2)cnn1-c1ccc(F)cc1`, the GI50 in the experiment on DU-145 prostate is greater than 25 µM; with MDA-MB-435, greater than 25 µM; with NCI-H460 lung it was greater than 14.2 µM; in the experiment with NCI-H522 lung, greater than 12.7 µM; in the experiment on NCI/ADR-RES ovarian, greater than 19.5 µM; in the experiment on OVCAR-3 ovarian, greater than 22.8 µM. Further, the GI50 in the experiment on OVCAR-8 ovarian is greater than 17.5 µM; in the experiment with SK-MEL-2 melanoma it was greater than 25 µM; in the experiment on SR leukemia, greater than 25 µM; in the experiment on UO-31 renal, greater than 12.8 µM. In addition, the TGI is greater than 25 µM with DU-145 prostate; greater than 25 µM in the experiment on MDA-MB-435; greater than 25 µM in the experiment with NCI-H460 lung; greater than 23.1 µM with NCI-H522 lung; greater than 25 µM with NCI/ADR-RES ovarian; greater than 25 µM with OVCAR-3 ovarian. Also, the TGI in the experiment on OVCAR-8 ovarian was greater than 25 µM; with SK-MEL-2 melanoma, greater than 25 µM; in the experiment on SR leukemia, greater than 25 µM; with UO-31 renal, greater than 22 µM.
